Results on 2 compounds are retold here after publication PMC7126369, “Identification of a selective inhibitor of IDH2/R140Q enzyme that induces cellular differentiation in leukemia cells” (Cell Communication and Signaling : CCS, 2020).

The IC50 is the concentration that gives 50% inhibition.

Residue numbers refer to the chain shown, from its start. Like-named read-outs stand apart in the source and are kept apart here.

In series [1] the test system is TF-1(IDH2/R140Q) cells. Put plainly: EPO-induced differentiation assay. Format: cell-based. The conditions noted are these: 1 μM, 7 days. The protocol: TF-1(WT) and TF-1(IDH2/R140Q) cells were washed three times by PBS to remove GM-CSF and treated with CP-17 (1 or 3 μM) and 5 ng/mL EPO for 7 days.
(§1) TF-1(IDH2R140Q) cells were seeded in a 12-well plate at a density of 5 × 10^4/mL. The test compound was added in different concentration gradients (3000, 1000, 333.33, 111.11, 37.04, 12.35, 4.12, and 1.37 nM). The cells were collected after 3 days of treatment. The cell pellet was suspended in 100 μL 80% aqueous methanol solution, containing 1 μg/mL Phenacetin as the internal standard. The cell lysate was centrifuged at 13,000 rpm for 10 min. The precipitate was removed at 4 °C and stored in an − 80 °C refrigerator. Before injection, the cell lysate was centrifuged again at 13,000 rpm for 10 min. The supernatant was transferred into the liquid phase cannula for injection. The test instrument was a Q Exactive™ Plus-Orbitrap™ MS, Thermo Scientific benchtop quadrupole-orbitrap high resolution mass spectrometer. The column used was Waters™ ACQUITY™ UPLC HSS-T3–1.8 μm, […] × 100 mm (part No. 186003539). The mobile phase was: Phase A, 0.1% aqueous formic acid (chromatographically pure); and Phase B, acetonitrile (chromatographically pure). […] D-2-HG and Phenacetin were monitored by mass transitions of m/z 147 → m/z 129 and m/z 178 → m/z 147, respectively. […]

In a further series the target is T1, IDH2/R140Q (Homo sapiens, UniProt P48735, R140Q).
T1 construct: FLAG (C); purchased BPS Bioscience
T1 sequence (P48735 40-452 R140Q): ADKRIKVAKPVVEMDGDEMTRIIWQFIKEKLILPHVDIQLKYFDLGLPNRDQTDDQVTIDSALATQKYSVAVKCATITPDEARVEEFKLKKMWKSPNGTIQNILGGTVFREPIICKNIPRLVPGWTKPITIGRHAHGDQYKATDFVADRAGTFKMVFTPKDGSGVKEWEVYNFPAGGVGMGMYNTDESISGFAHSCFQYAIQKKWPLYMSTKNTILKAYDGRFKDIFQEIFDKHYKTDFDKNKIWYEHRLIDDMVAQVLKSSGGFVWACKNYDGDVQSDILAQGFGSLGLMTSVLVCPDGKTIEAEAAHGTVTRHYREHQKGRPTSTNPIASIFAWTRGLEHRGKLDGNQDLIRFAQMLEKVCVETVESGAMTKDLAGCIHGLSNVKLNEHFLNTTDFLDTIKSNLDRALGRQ
Put plainly: Diaphorase/resazurin coupled NADPH depletion enzymatic assay, IDH2/R140Q homodimer. The conditions noted are these: read-out: IC50 for α-KG reduction. The format is biochemical. The protocol:
(§2) The compounds were dissolved to a concentration of 20 mM in pure DMSO. Diaphorase/resazurin coupled NADPH deletion or production assays were used to measure the activity of IDH mutants or wild-type IDH (IDH/WT) enzymes. […] Afterwards, 20 μL of the gradient concentrations of compound dilution were added to this mixture and incubated at 25 °C for 1 h or 16 h. […] Further, 20 μL of 4X assay buffer containing 0.6 mM isocitrate was used for enzymatic reaction.

Series [2] relates to TF-1(IDH2/R140Q) cells. Put plainly: GM-CSF-independent proliferation assay. Format: cell-based. The conditions noted are these: 3 μM, 7 days. The method, then:
(§3) The cell proliferation was detected by CellTiter 96® AQueous One Solution Cell Proliferation Assay Kit (Promega) according to the protocol. Briefly, TF-1(WT) and TF-1(IDH2/R140Q) cells were cultured in complete growth medium that is supplemented with 2 ng/mL GM-CSF. Prior to the proliferation assay, the cells were washed three times with PBS to eliminate GM-CSF. These cells were transferred to 96 well plates (5000 cells per well), with each well containing 100 μL growth medium without GM-CSF, and treated with CP-17 (1 or 3 μM) for 7 days. Then 20 μL per well of CellTiter 96® AQueous One Solution Reagent were added to each well. The plate was incubated at 37 °C for 4 h in a humidified, 5% CO2 atmosphere, and then the absorbance at 490 nm was recorded using a 96-well plate reader. Three independent repetitive experiments were carried out and analyzed by Graphpad Prism 5.0. […] T-test was used to compare the difference significance with control group and the data meet the assumption of the test.

Another series relates to TF-1(WT) cells. Description: GM-CSF-independent proliferation assay. Format: cell-based. The conditions noted are these: 3 μM, 7 days. The method, then:
as §3

Another series concerns the target T2, IDH2/WT (Homo sapiens, UniProt P48735).
T2 construct: FLAG (C); purchased BPS Bioscience
T2 sequence (P48735 40-452): T1 sequence (P48735 40-452 R140Q) with Q101R
Put plainly: Diaphorase/resazurin coupled NADPH production enzymatic assay, IDH2/WT. The format is biochemical. The conditions noted are these: incubation time 16 h, read-out: IC50 for isocitrate to α-KG. The method, then: as §2
In general terms: The colour change of resazurin is a common sign of viable cells or microbes.

The next series deals with T3, IDH1/R132H (Homo sapiens, UniProt O75874, R132H).
T3 construct: FLAG (C); purchased BPS Bioscience
Put plainly: Enzymatic assay, IDH1/R132H. The conditions noted are these: incubation time 16 h, read-out: IC50 for α-KG reduction. Format: biochemical. The protocol: Analogously, a mixture of the IDH1/R132H enzyme (0.2 μg/mL) and NADPH (30 μM) was prepared in the assay buffer [10 mM MgCl2, 150 mM NaCl, 20 mM Tris-Cl (pH 7.5), 0.05% BSA, and 2 mM β-mercaptoethanol], after which compound dilutions were added and incubated for 16 h at 25 °C. The activity was measured using the same method as for IDH2/R140Q.

Series [3] concerns TF-1(IDH2/R140Q) cells. Description: D-2-HG assay (LC-MS) in cells. Format: cell-based. The conditions noted are these: 72 h, 3 days of treatment, read-out: IC50 of intracellular D-2-HG production. The method, then: as §1, with “pure). The gradients were set as 1% B for 1.5 min → 70% B for 0.5 min → 1% B for 1.5 min → 0% B. The column was re-equilibrated for 2 min between injections. A temperature of 40 °C was set for the column with a flow rate of 0.2 mL/min.” for “pure).”

For series [4], the system named is TF-1(IDH2/R140Q) cells. Put plainly: Histone methylation assay (western blot). Format: cell-based. The conditions noted are these: 1 and 3 μM, 7 days. The protocol: TF-1(WT) and TF-1(IDH2/R140Q) cells were treated with CP-17 (1 or 3 μM) in the presence of recombinant human GM-CSF for 7 days and then lysed and evaluated for the expression of H3K9me3, H3K4me3, H3K27me3, and H3 with specific antibodies by western blot. The total amount of histone H3 was used as the loading control. Three independent repetitive experiments were carried out.
In general terms: A western blot detects proteins with antibodies after separation by electrophoresis.

The target of another series is T4, IDH1/WT (Homo sapiens, UniProt O75874).
T4 construct: FLAG (C); purchased BPS Bioscience
Description: Enzymatic assay, IDH1/WT. The conditions noted are these: incubation time 16 h, read-out: IC50 for isocitrate to α-KG. The format is biochemical. The protocol:
A mixture of the IDH1/WT (0.08 μg/mL) and NADP (50 μM) was prepared in the assay buffer [10 mM MgCl2, 150 mM NaCl, 20 mM Tris (pH 7.5), 2 mM β-mercaptoethanol, and 0.05% BSA], after which compound dilutions were added and incubated for 16 h at 25 °C. Other operations were referred to the assay of IDH2/WT.

Series [5] has as its system AML patients carrying mutant IDH2. Details: method as in PMID 29346478, PMID 29346477. The conditions noted are these: patients responding to Enasidenib; cited from earlier work.

T3 sequence (O75874 whole entry R132H): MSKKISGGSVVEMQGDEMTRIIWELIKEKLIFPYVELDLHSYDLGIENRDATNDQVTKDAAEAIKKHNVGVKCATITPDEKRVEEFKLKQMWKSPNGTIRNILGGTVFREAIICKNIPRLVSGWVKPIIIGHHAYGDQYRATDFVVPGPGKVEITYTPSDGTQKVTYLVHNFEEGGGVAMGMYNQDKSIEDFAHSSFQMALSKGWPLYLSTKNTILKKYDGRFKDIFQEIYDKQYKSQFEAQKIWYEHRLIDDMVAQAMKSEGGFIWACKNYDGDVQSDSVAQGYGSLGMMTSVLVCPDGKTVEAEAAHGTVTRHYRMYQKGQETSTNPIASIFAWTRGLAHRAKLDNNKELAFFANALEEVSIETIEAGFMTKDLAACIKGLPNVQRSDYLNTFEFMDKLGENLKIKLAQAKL
T4 sequence (O75874 whole entry): as the sequence (O75874 whole entry R132H) above, with H132R counted along it

For the compound `Cc1ccc(Cl)cc1NC(=O)Nc1cc(NC(=O)c2ccccc2)ccc1N1CCCC1` [CP-17, N-(3-(3-(5-chloro-2-methylphenyl)ureido)-4-(pyrrolidin-1-yl)phenyl)benzamide], the “EPO-induced differentiation (color change, hemoglobin γ expression)” value in the series on TF-1(IDH2/R140Q) cells [1] was “restored the EPO-induced color change and hemoglobin γ expression”. Moreover, the IC50 at IDH2/R140Q (incubation time 1 h) was 99.9 nM; at IDH2/R140Q (incubation time 16 h), 40.8 nM; on IDH2/WT, 2270 nM; on IDH1/R132H, over 5000 nM; with TF-1(IDH2/R140Q) cells [3], 141 nM; on IDH1/WT it was over 5000 nM. For the same compound, in the series with TF-1(IDH2/R140Q) cells [2], the GM-CSF-independent growth entry was “significantly inhibited”. For the same compound, in the series with TF-1(WT) cells, the Proliferation result was “no obvious effect”. For the same compound, the “Histone methylation (H3K4me3, H3K9me3, H3K27me3)” value in the series on TF-1(IDH2/R140Q) cells [4] was “dose-dependent decrease in histone methylation”.
On to `CC(C)(O)CNc1nc(Nc2ccnc(C(F)(F)F)c2)nc(-c2cccc(C(F)(F)F)n2)n1` [Enasidenib], for which, in [5], the “Patients who develop differentiation syndrome” value is 11.7%.
